# Data: US11053204B2, “Pyrimidinyloxy benzene derivatives as herbicides” (FMC Corporation, priority 2015, dated 2021)
# Key:
# Assay type in all cases: in vivo
# [1] = system: Italian ryegrass (Lolium multiflorum); assay: Test A preemergence, visual injury rating; settings: for Plant response rating, Ryegrass, Italian: 31 g ai/ha, 0 to 100 scale, 0 no effect, 100 complete control; for Ryegrass, Italian plant response rating: 0 to 100 scale (0 no effect, 100 complete control)
# In short: (§1)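 Injury scores run from 0, no effect, to 100, complete control, judged by eye against untreated plants roughly 10 days after treatment. Chemicals carried a surfactant in a non-phytotoxic solvent and went onto loam–sand soil preemergence or onto one- to two-leaf seedlings postemergence.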
# [2] = system: barnyardgrass (Echinochloa crus-galli); assay: Test A preemergence, visual injury rating; settings: for Plant response rating, Barnyardgrass: 31 g ai/ha, 0 to 100 scale, 0 no effect, 100 complete control; for Barnyardgrass plant response rating: 0 to 100 scale (0 no effect, 100 complete control)
# In short: as §1
# [3] = system: giant foxtail (Setaria faberii); assay: Test A preemergence, visual injury rating; settings: for Plant response rating, Foxtail, Giant: 31 g ai/ha, 0 to 100 scale, 0 no effect, 100 complete control; for Foxtail, Giant plant response rating: 0 to 100 scale (0 no effect, 100 complete control)
# In short: as §1
# kochia (Kochia scoparia) [4] = assay: Test A preemergence, visual injury rating; settings: for Plant response rating, Kochia: 31 g ai/ha, 0 to 100 scale, 0 no effect, 100 complete control; for Kochia plant response rating: 0 to 100 scale (0 no effect, 100 complete control)
# In short: as §1
# [5] = system: pigweed (Amaranthus retroflexus); assay: Test A preemergence, visual injury rating; settings: for Plant response rating, Pigweed: 31 g ai/ha, 0 to 100 scale, 0 no effect, 100 complete control; for Pigweed plant response rating: 0 to 100 scale (0 no effect, 100 complete control)
# In short: as §1
# [6] = system: ragweed (common ragweed, Ambrosia elatior); assay: Test A preemergence, visual injury rating; settings: for Plant response rating, Ragweed: 31 g ai/ha, 0 to 100 scale, 0 no effect, 100 complete control; for Ragweed plant response rating: 0 to 100 scale (0 no effect, 100 complete control)
# In short: as §1
# [7] = system: Italian ryegrass (Lolium multiflorum); assay: Test A postemergence, visual injury rating; settings: 0 is no effect, 100 is complete control; for Ryegrass, Italian plant response rating: 0 to 100 scale, approximately 10 days
# In short: as §1
# [8] = system: barnyardgrass (Echinochloa crus-galli); assay: Test A postemergence, visual injury rating; settings: 0 is no effect, 100 is complete control; for Barnyardgrass plant response rating: 0 to 100 scale, approximately 10 days
# In short: as §1
# [9] = system: blackgrass (Alopecurus myosuroides); assay: Test A postemergence, visual injury rating; settings: 0 is no effect, 100 is complete control; for Blackgrass plant response rating: 0 to 100 scale, approximately 10 days
# In short: as §1
# corn (Zea mays) = assay: Test A postemergence, visual injury rating; settings: 0 is no effect, 100 is complete control; for Corn plant response rating: 0 to 100 scale, approximately 10 days
# In short: as §1
# [10] = system: galium (catchweed bedstraw, Galium aparine); assay: Test A postemergence, visual injury rating; settings: 0 is no effect, 100 is complete control; for Galium plant response rating: 0 to 100 scale, approximately 10 days
# In short: as §1
# [11] = system: giant foxtail (Setaria faberii); assay: Test A postemergence, visual injury rating; settings: 0 is no effect, 100 is complete control; for Foxtail, Giant plant response rating: 0 to 100 scale, approximately 10 days
# In short: as §1
# kochia (Kochia scoparia) [12] = assay: Test A postemergence, visual injury rating; settings: 0 is no effect, 100 is complete control; for Kochia plant response rating: 0 to 100 scale, approximately 10 days
# In short: as §1
# [13] = system: pigweed (Amaranthus retroflexus); assay: Test A postemergence, visual injury rating; settings: 0 is no effect, 100 is complete control; for Pigweed plant response rating: 0 to 100 scale, approximately 10 days
# In short: as §1
# [14] = system: ragweed (common ragweed, Ambrosia elatior); assay: Test A postemergence, visual injury rating; settings: 0 is no effect, 100 is complete control; for Ragweed plant response rating: 0 to 100 scale, approximately 10 days
# In short: as §1
# [15] = system: wheat (Triticum aestivum); assay: Test A postemergence, visual injury rating; settings: 0 is no effect, 100 is complete control; for Wheat plant response rating: 0 to 100 scale, approximately 10 days
# In short: as §1
# [16] = system: barnyardgrass (Echinochloa crus-galli); assay: Test B flooded paddy test, plant response rating; settings: 250 g ai/ha; Flood; scale of 0 to 100 where 0 is no effect and 100 is complete control; 13 to 15 days
# In short: (§2)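 Greenhouse pots flooded to 3 cm above soil at time of treatment received compound via the water, which stayed at that level.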
# [17] = system: ducksalad (Heteranthera limosa); assay: Test B flooded paddy test, plant response rating; settings: 250 g ai/ha; Flood; scale of 0 to 100 where 0 is no effect and 100 is complete control; 13 to 15 days
# In short: as §2
# rice (Oryza sativa) = assay: Test B flooded paddy test, plant response rating; settings: 250 g ai/ha; Flood; scale of 0 to 100 where 0 is no effect and 100 is complete control; 13 to 15 days
# In short: as §2
# [18] = system: sedge, umbrella (small-flower umbrella sedge, Cyperus difformis); assay: Test B flooded paddy test, plant response rating; settings: 250 g ai/ha; Flood; scale of 0 to 100 where 0 is no effect and 100 is complete control; 13 to 15 days
# In short: as §2
Compound,"Ryegrass, Italian plant response rating ([1]; 125 g ai/ha)",Barnyardgrass plant response rating ([2]; 125 g ai/ha),"Foxtail, Giant plant response rating ([3]; 125 g ai/ha)",Kochia plant response rating (kochia (Kochia scoparia) [4]; 125 g ai/ha),Pigweed plant response rating ([5]; 125 g ai/ha),Ragweed plant response rating ([6]; 125 g ai/ha),"Ryegrass, Italian plant response rating ([7]; 125 g ai/ha)",Barnyardgrass plant response rating ([8]; 125 g ai/ha),Blackgrass plant response rating ([9]; 125 g ai/ha),Corn plant response rating (corn (Zea mays); 125 g ai/ha),Galium plant response rating ([10]; 125 g ai/ha),"Foxtail, Giant plant response rating ([11]; 125 g ai/ha)",Kochia plant response rating (kochia (Kochia scoparia) [12]; 125 g ai/ha),Pigweed plant response rating ([13]; 125 g ai/ha),Ragweed plant response rating ([14]; 125 g ai/ha),Wheat plant response rating ([15]; 125 g ai/ha),"Plant response rating, Barnyardgrass [16]","Plant response rating, Ducksalad [17]","Plant response rating, Rice (rice (Oryza sativa))","Plant response rating, Sedge, Umbrella [18]",other results
C=C(C)CCOC(=O)c1c(Br)cccc1Oc1ncc(Cl)cn1 [Compound 90],0,40,70,0,0,0,0,30,0,10,20,60,50,50,0,0,0,30,0,60,"Plant response rating, Ryegrass, Italian [1]: 0; Plant response rating, Barnyardgrass [2]: 0; Plant response rating, Foxtail, Giant [3]: 10; Plant response rating, Kochia (kochia (Kochia scoparia) [4]): 0; Plant response rating, Pigweed [5]: 0; Plant response rating, Ragweed [6]: 0; Ryegrass, Italian plant response rating ([7]; 31 g ai/ha): 0; Barnyardgrass plant response rating ([8]; 31 g ai/ha): 0; Blackgrass plant response rating ([9]; 31 g ai/ha): 0; Corn plant response rating (corn (Zea mays); 31 g ai/ha): 0; Galium plant response rating ([10]; 31 g ai/ha): 0; Foxtail, Giant plant response rating ([11]; 31 g ai/ha): 10; Kochia plant response rating (kochia (Kochia scoparia) [12]; 31 g ai/ha): 30; Pigweed plant response rating ([13]; 31 g ai/ha): 10; Ragweed plant response rating ([14]; 31 g ai/ha): 0; Wheat plant response rating ([15]; 31 g ai/ha): 0"
C=CCSC(=O)c1c(Br)cccc1Oc1ncc(Cl)cn1 [Compound 91],0,90,70,20,40,0,0,30,20,20,70,30,60,100,0,20,0,100,20,95,"Ryegrass, Italian plant response rating ([1]; 500 g ai/ha): 80; Barnyardgrass plant response rating ([2]; 500 g ai/ha): 100; Foxtail, Giant plant response rating ([3]; 500 g ai/ha): 100; Kochia plant response rating (kochia (Kochia scoparia) [4]; 500 g ai/ha): 100; Pigweed plant response rating ([5]; 500 g ai/ha): 100; Ragweed plant response rating ([6]; 500 g ai/ha): 0; Ryegrass, Italian plant response rating (0 to 100 scale) ([7]; 500 g ai/ha): 30; Barnyardgrass plant response rating (0 to 100 scale) ([8]; 500 g ai/ha): 100; Blackgrass plant response rating (0 to 100 scale) ([9]; 500 g ai/ha): 30; Corn plant response rating (0 to 100 scale) (corn (Zea mays); 500 g ai/ha): 50; Galium plant response rating (0 to 100 scale) ([10]; 500 g ai/ha): 90; Foxtail, Giant plant response rating (0 to 100 scale) ([11]; 500 g ai/ha): 100; Kochia plant response rating (0 to 100 scale) (kochia (Kochia scoparia) [12]; 500 g ai/ha): 100; Pigweed plant response rating (0 to 100 scale) ([13]; 500 g ai/ha): 100; Ragweed plant response rating (0 to 100 scale) ([14]; 500 g ai/ha): 20; Wheat plant response rating (0 to 100 scale) ([15]; 500 g ai/ha): 30"
O=C(NCCC(F)(F)F)c1c(Br)cccc1Oc1ncc(Cl)cn1 [Compound 93],0,0,0,0,0,0,0,0,0,0,0,0,0,0,0,0,0,0,0,0,"Plant response rating, Ryegrass, Italian [1]: 0; Plant response rating, Barnyardgrass [2]: 0; Plant response rating, Foxtail, Giant [3]: 0; Plant response rating, Kochia (kochia (Kochia scoparia) [4]): 0; Plant response rating, Pigweed [5]: 0; Plant response rating, Ragweed [6]: 0; Ryegrass, Italian plant response rating ([7]; 31 g ai/ha): 0; Barnyardgrass plant response rating ([8]; 31 g ai/ha): 0; Blackgrass plant response rating ([9]; 31 g ai/ha): 0; Corn plant response rating (corn (Zea mays); 31 g ai/ha): 0; Galium plant response rating ([10]; 31 g ai/ha): 0; Foxtail, Giant plant response rating ([11]; 31 g ai/ha): 0; Kochia plant response rating (kochia (Kochia scoparia) [12]; 31 g ai/ha): 0; Pigweed plant response rating ([13]; 31 g ai/ha): 0; Ragweed plant response rating ([14]; 31 g ai/ha): 0; Wheat plant response rating ([15]; 31 g ai/ha): 0"
